What all share (assay type): functional
The species named for experiment [1] is Homo sapiens. The experiment in a line: Chemotactic activity was expressed as percentage of random locomotion of human neutrophils.
Experiment [2] is filed under the species Homo sapiens. The experiment is described as follows: (§1) Superoxide anion release expressed as n moles of superoxide anion/2E6 neutrophils/5 min.
The species entered for experiment [3] is Homo sapiens. The experiment is described as §1. This is another data set of the same source.
Experiment [4] is filed under the species Homo sapiens. The experiment is described as follows: (§2) Chemotactic activity was expressed as percentage of random locomotion.
The species named for experiment [5] is Homo sapiens. The experiment is described as §2. The source holds these as a separate data set.
Experiment [6] is filed under the species Homo sapiens. Described as §2. The source holds these as a separate data set.
For experiment [7], the species on record is Homo sapiens. The experiment is described as follows: lysozyme release expressed as percentage of total enzyme content released by 0.1% Triton X-100.
Experiment [8] is filed under the species Homo sapiens. The experiment is described as follows: Chemotactic activity was expressed as percentage of random locomotion human neutrophils.
The species named for experiment [9] is Homo sapiens. Described as §1. The source holds these as a separate data set.

Structures are written as SMILES. Where a SMILES comes first, the peptide text is derived from it. [ ]: non-standard residue; d: D form. The star is where a group is joined. PhLac = O=C(O)[C@@H](O)Cc1ccccc1; NHBn = c1ccc(CN*)cc1; For = O=C*

Regarding `COC(=O)[C@H](Cc1ccccc1)NC(=O)[C@H](CC(C)C)OC(=O)[C@H](CCSC)NC=O`, in experiment [1], the “Chemotactic activity at 10^-10 M (% of random locomotion)” value came out at 0. In addition, in experiment [2], the Superoxide anion release is given as 0 and the “Superoxide anion release at 10^-8 M” value worked out at 0. In addition, in experiment [3], the Superoxide anion release was 0. For the same compound, the “Chemotactic activity (% of random locomotion)” value in experiment [4] came to 9. The “Chemotactic activity (% of random locomotion)” value in experiment [5] is listed as 10. In experiment [6], the “Chemotactic activity (% of random locomotion)” value was found to be 13 and the “chemotactic activity (% of random locomotion) at 10^-8 M” value is listed as 8. Moreover, in experiment [7], the “Log [-5]” value worked out at 10, the “Log [-6]” value is recorded as 12, the “Log [-7]” value is on record as 10 and the “Log [-8]” value amounted to 11. The “Log [-9]” value in experiment [8] is recorded as 11. Besides, the Superoxide anion release in experiment [9] is 0.
For `CSCC[C@H](NC=O)C(=O)N[C@@H](CC(C)C)C(=O)O[C@@H](Cc1ccccc1)C(=O)NCc1ccccc1` (For-Met-Leu-[PhLac]-NHBn), in experiment [1], the “Chemotactic activity at 10^-10 M (% of random locomotion)” value is reported as 62 and the “Log [-9]” value is recorded as 54. In [2], the Superoxide anion release worked out at 14 and the “Superoxide anion release at 10^-8 M” value was determined as 8. Further, in experiment [3], the Superoxide anion release stood at 24. Besides, the “Chemotactic activity (% of random locomotion)” value in [4] was 55. In experiment [5], the “Chemotactic activity (% of random locomotion)” value came out at 20. In addition, in [6], the “Chemotactic activity (% of random locomotion)” value came out at 51 and the “chemotactic activity (% of random locomotion) at 10^-8 M” value turned out to be 51. Also, in experiment [7], the “Log [-5]” value was 40, the “Log [-6]” value was determined as 38, the “Log [-7]” value was 35 and the “Log [-8]” value is given as 24. Also, the Superoxide anion release in [9] was 32.
Turning to `COC(=O)[C@H](Cc1ccccc1)NC(=O)C(C)(N)COC(=O)[C@H](CCSC)NC=O` (stereo partly specified), in [1], the “Chemotactic activity at 10^-10 M (% of random locomotion)” value worked out at 10 and the “Log [-9]” value was determined as 9. Also, in [2], the Superoxide anion release is given as 0 and the “Superoxide anion release at 10^-8 M” value came to 0. The compound also gave a Superoxide anion release in experiment [3] of 0. In addition, the “Chemotactic activity (% of random locomotion)” value in experiment [4] came to 7. Also, the “Chemotactic activity (% of random locomotion)” value in experiment [5] is listed as 4. For the same compound, in [6], the “Chemotactic activity (% of random locomotion)” value stood at 14 and the “chemotactic activity (% of random locomotion) at 10^-8 M” value came to 14. In addition, in experiment [7], the “Log [-5]” value is recorded as 15, the “Log [-6]” value is on record as 13, the “Log [-7]” value was 11 and the “Log [-8]” value was 15. In experiment [9], the Superoxide anion release worked out at 0.
For the compound `COC(=O)[C@H](Cc1ccccc1)NC(=O)[C@H](CC(C)C)NC(=O)[C@H](CCSC)NC=O`, in [1], the “Chemotactic activity at 10^-10 M (% of random locomotion)” value was determined as 105 and the “Log [-9]” value was determined as 115. In experiment [2], the Superoxide anion release amounted to 44 and the “Superoxide anion release at 10^-8 M” value worked out at 7. In addition, in experiment [3], the Superoxide anion release was determined as 43. The “Chemotactic activity (% of random locomotion)” value in [4] was 62. The “Chemotactic activity (% of random locomotion)” value in experiment [5] is 36. In experiment [6], the “Chemotactic activity (% of random locomotion)” value was found to be 85 and the “chemotactic activity (% of random locomotion) at 10^-8 M” value was 105. Further, in [7], the “Log [-5]” value is 62, the “Log [-6]” value is reported as 67, the “Log [-7]” value is given as 59 and the “Log [-8]” value amounted to 54. This compound displayed a Superoxide anion release in experiment [9] of 37.

The record behind these values is ChEMBL document CHEMBL1127918, “The role of peptide bond in chemotactic for-met-leu-phe-ome focused by depsipeptide analogs” (1994).
